Experimental findings from patent publication US20090076067A1, “PHARMACEUTICAL COMPOSITION COMPRISING AZARHODACYANINE COMPOUND AS ACTIVE INGREDIENT” (priority 2005, published 2009) are described below.

Where two headings read alike, the source gives them in different places.

Format in all cases: cell-based
Data set [1] has as its system Trypanosoma cruzi (Tulahuen C2C4 strain). Briefly: American trypanosoma protozoa proliferation inhibition screening test. The following applies: for EC50: Trypanosoma cruzi, read-out: EC50 Trypanosoma cruzi; for Selective toxicity: EC50 rat L6 cells / EC50 American trypanosoma protozoa. The protocol:
In this experiment, amastigote and trypomastigote of Trypanosoma cruzi (Tulahuen C2C4 strain) infected to rat L6 cells were used. The medium used in the experiment was prepared as follows: to RPMI 1640 medium containing L6 cells, L-glutamine (200 mM) and fetal bovine serum was added to achieve concentration of 1% and 10%, respectively. The culture was conducted under CO2 concentration 5% and temperature 37° C.
Either the compound of the invention or a positive control (benznidazole) was dissolved into DMSO to prepare test solution having predefined concentration. To each well in a 96-well culture plate, medium containing 5×10^3 protozoa was added and precultured for 48 hours. After replacing the medium, either the test solution containing compound of the invention in predefined concentration or DMSO without compound was added. The test solution was duplicated.
The plate was cultured in an incubator for 96 hours, and the proliferation inhibition activity was examined. The activity was determined as follows. To each well, 50 μL CPRG/Nonidet was added, then left for 2 to 6 hours. Then the culture plate was mounted on an absorption microplate reader to determine absorption at 540 nm. The trypanosoma infection rate of the sample containing the test compound and that of the control sample was calculated.
(§1) Using the protozoa infection rate thus obtained, the proliferation inhibition rate was calculated according to the following equation to determine 50% proliferation inhibition concentration (EC50).
(§2) Proliferation inhibition rate(%)={1−(b−a)/(c−a)}×100
a: initial infection rate b: infection rate of the test compound solution c: infection rate of the control

Data set [2] relates to Rat-derived L6 cells (rat skeletal myoblast cell). In words: Rat L6 cell proliferation inhibition test. The following applies: Alamar Blue.
Data set [3] in a line: Rat L6 cell proliferation inhibition test. The following applies: read-out: EC50 cytotoxicity L6; for EC50 at 72 h: L6 cells (rat skeletal myoblasts), Table 1, Alamar Blue.
Data set [4] deals with Leishmania donovani (MHOM/ET/67/L82 strain). Briefly: Leishmania protozoa proliferation inhibition screening test. The following applies: for Selective toxicity: EC50 rat L6 cells / EC50 leishmania protozoa; for EC50: Leishmania donovani, read-out: EC50 Leishmania donovani. The protocol: In this experiment, Leishmania donovani (MHOM/ET/67/L82 strain) was used. The protozoa were successively cultured in Syrian Golden hamsters to obtain amastigote. The medium used in the experiment was SM medium having heat-treated fetal bovine serum 10% added, and pH prepared to 5.4. The culture was conducted under CO2 concentration 5% and temperature 37° C.
Either the compound of the invention or a positive control (miltefosine) was dissolved into DMSO to prepare test solution having predefined concentration. To each well of a 96-well culture plate, medium containing predetermined number of protozoa was added and the culture was pre-treated. The concentration of amastigote was determined by CASY cell analyze system (Scharfe GMBH Co., Germany). Subsequently, either test solution containing compound of the invention in predefined concentration or DMSO without compound was added. The test solution was duplicated.
The plate was cultured in an incubator for 72 hours, and the proliferation inhibition activity was examined. The activity was determined as follows. To each well, 10 μL Alamar blue aqueous solution was added, then cultured again for 2 hours. Then the culture plate was mounted on a fluorescence microplate reader (Spectramax Gemeni XS; Molecular Devices Corporation, U.S), and irradiated 536 nm excitation wavelength to determine […] at 588 nm. The leishmania infection rate of the sample containing the test compound and that of the control sample was calculated.
as §1, §2
a: initial infection rate b: infection rate of test compound solution c: infection rate of the control

Where [5] appears, read: Tulahuen C2C4 strain in rat L6 cells, 96 hours, CPRG/Nonidet.
Setting [6] is: amastigote, 72 hours, Alamar blue.

For the compound `CN1/C(=c2\s/c(=C\c3cccc[n+]3CCC(=O)O)n(CC3CO3)c2=O)Sc2ccccc21` (stereo not shown) [Compound S-3, reference compound], the concentration giving a half-maximal response (EC50) is more than 30 µg/mL in data set [1] (TULAHUEN, L6, 96 h); more than 90 µg/mL in data set [3] (Table 1, rat L6 cells, 72 hours, Alamar Blue); 0.53 µg/mL in data set [4] (72 h). For the same compound, the “EC50 cytotoxicity L6” value in data set [2] (Table 2, 72 hours) is more than 90 µg/mL; in data set [2] (Table 3, 72 hours) it was more than 90 µg/mL; in data set [2] (Table 4, 72 hours), more than 90 µg/mL. In addition, in data set [4], the Selective toxicity is reported as more than 170.

In the case of `CCN1C(=O)/C(=c2/s/c(=C3/SCCN3C)c(=O)n2CC)S/C1=N\c1sc2cc(Cl)ccc2[n+]1C` [Compound B-12], the Selective toxicity in data set [1] was found to be 7; in data set [4], 41. Moreover, the EC50 in data set [1] (setting [5]) was determined as 0.98 µg/mL; in data set [4] (setting [6]) it was 0.167 µg/mL. Also, in data set [3], the EC50 at 72 h is 6.9 µg/mL.

Regarding `CCN1C(=O)/C(=c2/s/c(=C3/C=CC=CN3C)c(=O)n2CC)S/C1=N\c1sc2cc(OC)ccc2[n+]1C` [Compound B-28], the “EC50 Trypanosoma cruzi” value in data set [1] (setting [5]) came to 0.314 µg/mL. In addition, the “EC50 cytotoxicity L6” value in data set [2] (Table 1, 72 hours) is 5.01 µg/mL; in data set [2] (Table 2, 72 hours), 5.01 µg/mL; in data set [2] (Table 3, 72 hours) it was 5.01 µg/mL; in data set [2] (Table 4, 72 hours), 5.01 µg/mL. Moreover, the “EC50 Leishmania donovani” value in data set [4] (setting [6]) was determined as 0.037 µg/mL.

`CCn1c(=O)/c(=C2\SCCN2C)s/c1=C1\S/C(=N\c2sc3cc(Cl)ccc3[n+]2C)N(C(C)C)C1=O` [Compound B-37]: the Selective toxicity in data set [1] worked out at 3. In addition, in data set [1] (setting [5]), the EC50 turned out to be 0.479 µg/mL. Further, the EC50 at 72 h in data set [3] came to 1.44 µg/mL.

In the case of `CCN1C(=O)/C(=c2/s/c(=C3/C=CC=CN3C)c(=O)n2CC)S/C1=N\c1sc2ccccc2[n+]1C` [Compound B-30], in data set [1] (setting [5]), the “EC50 Trypanosoma cruzi” value was 0.74 µg/mL. Also, the “EC50 cytotoxicity L6” value in data set [2] (Table 1, 72 hours) was determined as 7.46 µg/mL; in data set [2] (Table 2, 72 hours), 7.46 µg/mL; in data set [2] (Table 3, 72 hours), 7.46 µg/mL; in data set [2] (Table 4, 72 hours), 7.46 µg/mL. In addition, in data set [4] (setting [6]), the “EC50 Leishmania donovani” value amounted to 0.11 µg/mL.

On to `CCN1C(=O)/C(=c2/s/c(=C3/SCCN3C)c(=O)n2CC)S/C1=N\c1sc2cc(OC)ccc2[n+]1C` [Compound B-29], for which the “EC50 Trypanosoma cruzi” value in data set [1] (setting [5]) amounted to 0.091 µg/mL. The “EC50 cytotoxicity L6” value was determined as 1.98 µg/mL in data set [2] (Table 1, 72 hours); 1.98 µg/mL in data set [2] (Table 2, 72 hours); 1.98 µg/mL in data set [2] (Table 3, 72 hours); 1.98 µg/mL in data set [2] (Table 4, 72 hours). Further, the “EC50 Leishmania donovani” value in data set [4] (setting [6]) was more than 0.04 µg/mL.

For `CCN1C(=O)/C(=c2/s/c(=C3/SCCN3C)c(=O)n2CC)S/C1=N\c1sc2cc(F)ccc2[n+]1C` [Compound B-33], in data set [1] (setting [5]), the “EC50 Trypanosoma cruzi” value is 0.66 µg/mL. In addition, the “EC50 cytotoxicity L6” value came out at 9.83 µg/mL in data set [2] (Table 1, 72 hours); 9.83 µg/mL in data set [2] (Table 2, 72 hours); 9.83 µg/mL in data set [2] (Table 3, 72 hours); 9.83 µg/mL in data set [2] (Table 4, 72 hours). Further, the “EC50 Leishmania donovani” value in data set [4] (setting [6]) is 0.2015 µg/mL.

As for `CCN1C(=O)/C(=c2/s/c(=C3/C=CC=CN3C)c(=O)n2CC)S/C1=N\c1sc2cc(Cl)ccc2[n+]1C` [Compound B-2], the EC50 at 72 h in data set [3] turned out to be 27 µg/mL. For the same compound, in data set [4] (setting [6]), the EC50 was 0.249 µg/mL.

Consider `CCN1C(=O)/C(=C2\Sc3ccccc3N2C)S/C1=N\c1sc2cc(Cl)ccc2[n+]1C` [Compound A-1], for which the EC50 at 72 h in data set [3] came to 37.9 µg/mL. This compound also displayed a Selective toxicity in data set [4] of 299. The EC50 in data set [4] (setting [6]) was found to be 0.127 µg/mL.

As for `CCN1C(=O)/C(=C2\C=Cc3ccccc3N2C)S/C1=N\c1sc2cc(Cl)ccc2[n+]1C` [Compound A-2], the Selective toxicity in data set [1] was 18; in data set [4], 2800. Moreover, the concentration for a half-maximal effect (EC50) was found to be 0.31 µg/mL in data set [1] (setting [5]) and 0.002 µg/mL in data set [4] (setting [6]). The EC50 at 72 h in data set [3] amounted to 5.5 µg/mL.
